From patent US7605272B2, “IGF-1R inhibitor” (Kyowa Hakko Kirin Co., Ltd., priority 2005, dated 2009)
Where a name gives a salt, the structure may show the parent alone.

Legend:
NCI-H929 = assay: Cytostatic activity on human multiple myeloma cell line NCI-H929 (WST-1); type: cell-based; settings: 10 μmol/L, 72 hours; for inhibition at 10 µM: Homo sapiens, NCI-H929, 72 h, read-out: cytostatic rate (%) H929 (10 μmol/L)
Procedure, shortened: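 Cytostatic rate is 100 minus % growth relative to DMSO-only wells (100%) and blank wells (0%), read by WST-1 absorbance at 450/690 nm after 2 h. Compound at 1 or 10 μmol/L final was applied for 72 h at 37 °C to cells seeded 24 h earlier.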

IGF-1R = target: T1, IGF-1R (Homo sapiens, UniProt P08069); assay: IGF-1R inhibitory activity (kinase reaction, time-resolved fluoroimmunoassay); type: biochemical; settings: IGF-1R active recombinant enzyme, test compound 10 μmol/L
T1 construct: purchased Upstate Co. 14-465
T1 sequence (P08069 959-1367 limits assumed): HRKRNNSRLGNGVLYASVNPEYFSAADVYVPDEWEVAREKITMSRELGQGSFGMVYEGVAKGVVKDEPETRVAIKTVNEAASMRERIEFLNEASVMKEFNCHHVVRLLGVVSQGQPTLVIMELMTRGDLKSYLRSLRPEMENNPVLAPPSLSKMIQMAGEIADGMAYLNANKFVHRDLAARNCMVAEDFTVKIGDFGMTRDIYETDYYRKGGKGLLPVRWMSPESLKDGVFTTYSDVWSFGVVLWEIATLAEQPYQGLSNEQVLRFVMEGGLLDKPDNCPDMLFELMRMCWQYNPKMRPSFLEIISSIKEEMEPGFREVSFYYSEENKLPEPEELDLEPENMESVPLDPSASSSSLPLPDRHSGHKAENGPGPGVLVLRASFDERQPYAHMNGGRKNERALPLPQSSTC
Procedure, shortened: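 Compounds were tested at a single 10 μmol/L concentration. Each was incubated with recombinant IGF-1R (200 μg/L), 10 mmol/L ATP, MgCl2/MnCl2 and Na3VO4 (pH 7.5) on immobilized poly(Glu-Tyr) peptide for 30 min at 24° C. Eu-anti-phosphotyrosine time-resolved fluorescence (340/615 nm) gave relative activity against no-compound and no-enzyme wells, reported as % inhibition.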

KMS-11 = assay: Cytostatic activity on human multiple myeloma cell line KMS-11 (WST-1); type: cell-based; settings: 10 μmol/L, 72 hours; for inhibition at 10 µM: Homo sapiens, KMS-11, 72 h, read-out: cytostatic rate (%) KMS-11 (10 μmol/L)
Method: The cytostatic rates of a test compound on human multiple myeloma cell lines NCI-H929 and KMS-11, were determined in the following manner.
For culturing NCI-H929, Roswell Park Memorial Institute's Medium (RPMI) 1640 (Gibco, Catalog No. 11875-093) containing 15% fetal bovine serum (Gibco, Catalog No. 10099-141), 1 mmol/L sodium pyruvate (Gibco, Catalog No. 11360-070), 10 mmol/L HEPES (Gibco, Catalog No. 15630-80), 4.5 g/L glucose (Sigma, Catalog No. G8769), 0.05 mmol/L 2-mercaptethanol (Nacalai Tesque, Catalog No. 21418-42) and penicillin/streptomycin (1:1) (Gibco, Catalog No. 15140-122) was used. For culturing KMS-11 cell, RPMI 1640 medium containing 10% fetal bovine serum and penicillin/streptomycin (1:1) was used. Each 80 μL of the NCI-H929 cell having a concentration of 1×10^5 cells/mL (or the KMS-11 cell having a concentration of 7.5×10^4 cells/mL) was inoculated to wells of a TC MICROWELL 96U plate (Nalge Nunc International, Catalog No. 163320) and was cultured in a 5% carbon dioxide gas incubator at 37° C. for 24 hours. Each 20 μL of a solution of the test compound in dimethyl sulfoxide (DMSO) which was prepared to make the final concentration to 1 μmol/L or 10 μmol/L, was added to each well. Each 20 μL of DMSO was added to the control well and the blank well to a final concentration of 0.1%. After adding the test compound, the cells were incubated in a 5% carbon dioxide gas incubator at 37° C. for 72 hours except for the blank well. After adding 20 μL of WST-1 reagent {4-[3-(4-iodophenyl)-2-(4-nitrophenyl)-2H-5-tetrazolio]-1,3-benzene disulfonate sodium salt} (Roche Diagnostics K.K., Catalog No. 1644807), which was diluted to 50% by RPMI medium to each well, the cells were further incubated at 37° C. for 2 hours. Then, the absorbances at 450 nm (reference wavelength: 690 nm) were measured with a microplate spectrophotometer SPECTRA max 340PC (Molecular Devices Corporation). The relative growth (%) of a well to which the test compound had been added and cultured for 72 hours was determined while setting the absorbance of a well to which not the test compound but DMSO alone had been added and cultured for 72 hours (control) as 100% and that of a well where the drugs are added (blank) as 0%. The cytostatic rate (%) of the test compound was determined by subtracting the calculated relative growth from 100.

SMILES | inhibitory activity (%) at 10 μmol/L (IGF-1R) | inhibition at 10 µM (IGF-1R) | cytostatic rate (%) H929 (10 μmol/L) (NCI-H929) | cytostatic rate (%) KMS-11 (10 μmol/L) (KMS-11) | inhibition at 10 µM (NCI-H929) | inhibition at 10 µM (KMS-11)
CCC(O)(CC)C(=O)Nc1ccccc1/C=C/c1n[nH]c2ccccc12 [Compound 45, (E)-2-ethyl-2-hydroxy-N-{2-[2-(1H-indazol-3-yl)vinyl]phenyl}butylamide] | 97.4% | – | 115.0% | 98.3% | – | –
O=C(Nc1ccccc1)c1ccccc1/C=C/c1n[nH]c2ccccc12 [Compound 47, (E)-N-phenyl-2-[2-(1H-indazol-3-yl)vinyl]benzamide] | – | 90.1% | – | – | 100% | 92.1%
Nc1ccn(C(=O)c2ccccc2/C=C/c2n[nH]c3ccccc23)n1 [Compound 48, (E)-3-amino-1-{2-[2-(1H-indazol-3-yl)vinyl]benzoyl}pyrazole] | – | 99.3% | – | – | 111% | 90.1%
Cn1cc([N+](=O)[O-])cc1C(=O)Nc1ccccc1/C=C/c1n[nH]c2ccccc12 [Compound 52, (E)-N-{2-[2-(1H-indazol-3-yl)vinyl]phenyl}-1-methyl-4-nitro-1H-pyrrole-2-carboxamide] | – | 98.5% | – | – | 119% | 128%
COc1cscc1C(=O)Nc1ccccc1/C=C/c1n[nH]c2ccccc12 [Compound 53, (E)-N-{2-[2-(1H-indazol-3-yl)vinyl]phenyl}-4-methoxythiophene-3-carboxamide] | – | 98.9% | – | – | 114% | 126%
O=C(Nc1ccccc1/C=C/c1n[nH]c2ccccc12)c1sccc1Cl [Compound 54, (E)-3-chloro-N-{2-[2-(1H-indazol-3-yl)vinyl]phenyl}thiophene-2-carboxamide] | – | 96.7% | – | – | 118% | 126%
Cn1c(C(=O)Nc2ccccc2/C=C/c2n[nH]c3ccccc23)cc2ccccc21 [Compound 55, (E)-N-{2-[2-(1H-indazol-3-yl)vinyl]phenyl}-1-methyl-1H-indole-2-carboxamide] | – | 98.9% | – | – | 115% | 132%
Nc1ccc(C(=O)Nc2ccccc2/C=C/c2n[nH]c3ccccc23)s1 [Compound 56, (E)-5-amino-N-{2-[2-(1H-indazol-3-yl)vinyl]phenyl}thiophene-2-carboxamide] | – | 99.3% | – | – | 116% | 134%
O=C(Nc1ccccc1/C=C/c1n[nH]c2ccccc12)c1cc2sccc2s1 [Compound 57, (E)-N-{2-[2-(1H-indazol-3-yl)vinyl]phenyl}thieno[3,2-b]thiophene-2-carboxamide] | – | 98.3% | – | – | 117% | 141%
Cc1c(C(=O)Nc2ccccc2/C=C/c2n[nH]c3ccccc23)sc2ccc(Cl)cc12 [Compound 58, (E)-5-chloro-N-{2-[2-(1H-indazol-3-yl)vinyl]phenyl}-3-methylbenzo[b]thiophene-2-carboxamide] | – | 86% | – | – | 69.8% | 119%
Cc1cc(C(=O)Nc2ccccc2/C=C/c2n[nH]c3ccccc23)c(C(F)(F)F)o1 [Compound 59, (E)-N-{2-[2-(1H-indazol-3-yl)vinyl]phenyl}-5-methyl-2-trifluoromethylfuran-3-carboxamide] | – | 86.3% | – | – | 110% | 106%
O=S(=O)(Nc1ccccc1/C=C/c1n[nH]c2ccccc12)c1cccs1 [Compound 60, (E)-N-{2-[2-(1H-indazol-3-yl)vinyl]phenyl}thiophene-2-sulfonamide] | – | 77.4% | – | – | 63.9% | 103%
O=C(Nc1ccccc1/C=C/c1n[nH]c2ccccc12)c1ccc([N+](=O)[O-])o1 [Compound 63, (E)-N-{2-[2-(1H-indazol-3-yl)vinyl]phenyl}-5-nitrofuran-2-carboxamide] | – | 99.2% | – | – | 109% | 125%

Further lines, with some results ahead:

inhibitory activity (%) at 10 μmol/L (IGF-1R) | inhibition at 10 µM (IGF-1R) | SMILES | cytostatic rate (%) H929 (10 μmol/L) (NCI-H929) | cytostatic rate (%) KMS-11 (10 μmol/L) (KMS-11) | inhibition at 10 µM (NCI-H929) | inhibition at 10 µM (KMS-11)
– | 97% | O=C(Nc1ccccc1/C=C/c1n[nH]c2ccccc12)c1cccc([N+](=O)[O-])c1 [Compound 64, (E)-N-{2-[2-(1H-indazol-3-yl)vinyl]phenyl}-3-nitrobenzamide] | – | – | 108% | 124%
– | 97.9% | O=C(Nc1ccccc1/C=C/c1n[nH]c2ccccc12)c1ccc([N+](=O)[O-])cc1 [Compound 65, (E)-N-{2-[2-(1H-indazol-3-yl)vinyl]phenyl}-4-nitrobenzamide] | – | – | 109% | 120%
– | 93.6% | Cc1cc([N+](=O)[O-])sc1C(=O)Nc1ccccc1/C=C/c1n[nH]c2ccccc12 [Compound 66, (E)-N-{2-[2-(1H-indazol-3-yl)vinyl]phenyl}-3-methyl-5-nitrothiophene-2-carboxamide] | – | – | 111% | 114%
– | 95.6% | Cc1cc(N)sc1C(=O)Nc1ccccc1/C=C/c1n[nH]c2ccccc12 [Compound 67, (E)-5-amino-N-{2-[2-(1H-indazol-3-yl)vinyl]phenyl}-3-methylthiophene-2-carboxamide] | – | – | 119% | 100%
– | 97.4% | CC(=O)Nc1ccc(C(=O)Nc2ccccc2/C=C/c2n[nH]c3ccccc23)s1 [Compound 68, (E)-5-acetylamino-N-{2-[2-(1H-indazol-3-yl)vinyl]phenyl}thiophene-2-carboxamide] | – | – | 114% | 112%
– | 101% | Nc1cccc(C(=O)Nc2ccccc2/C=C/c2n[nH]c3ccccc23)c1 [Compound 69, (E)-3-amino-N-{2-[2-(1H-indazol-3-yl)vinyl]phenyl}benzamide] | – | – | 116% | 114%
– | 101% | Nc1ccc(C(=O)Nc2ccccc2/C=C/c2n[nH]c3ccccc23)cc1 [Compound 70, (E)-4-amino-N-{2-[2-(1H-indazol-3-yl)vinyl]phenyl}benzamide] | – | – | 115% | 113%
– | 99.4% | Cc1nnsc1C(=O)Nc1ccccc1/C=C/c1n[nH]c2ccccc12 [Compound 71, (E)-N-{2-[2-(1H-indazol-3-yl)vinyl]phenyl}-4-methyl-[1,2,3]thiadiazole-5-carboxamide] | – | – | 115% | 114%
– | 88% | Cn1cccc1CC(=O)Nc1ccccc1/C=C/c1n[nH]c2ccccc12 [Compound 73, (E)-N-{2-[2-(1H-indazol-3-yl)vinyl]phenyl}-2-(1-methyl-1H-pyrrole-2-yl)acetamide] | – | – | 80% | 90.4%
– | 99.2% | Cn1cc(N)cc1C(=O)Nc1ccccc1/C=C/c1n[nH]c2ccccc12 [Compound 76, (E)-4-amino-N-{2-[2-(1H-indazol-3-yl)vinyl]phenyl}-1-methyl-1H-pyrrole-2-carboxamide trifluoroacetate] | – | – | 109% | 126%
– | 101% | O=C(Nc1ccccc1/C=C/c1n[nH]c2ccccc12)c1ccc(O)cc1 [Compound 77, (E)-4-hydroxy-N-{2-[2-(1H-indazol-3-yl)vinyl]phenyl}benzamide] | – | – | 111% | 126%
– | 100% | COCCOc1ccc(C(=O)Nc2ccccc2/C=C/c2n[nH]c3ccccc23)cc1 [Compound 78, (E)-N-{2-[2-(1H-indazol-3-yl)vinyl]phenyl}-4-(2-methoxyethoxy)benzamide] | – | – | 114% | 107%
